Measured values reported in patent publication US20250388623A1, “PEPTIDE INHIBITOR AND USE THEREOF” (CHENGDU BRILLIANT INSPIRATION BIOTHERAPEUTICS CO., LTD, priority 2022, published 2025).
Bridge positions count the residues as written; N and C are the ends. Peptide text beside a SMILES is read from it.

Key:
[1] = test system: rat fibrotic disease model (bleomycin); experiment: Hydroxyproline (HYP) content / collagen deposition in lung, bleomycin rat fibrosis model; assay type: in vivo; settings: 2 mg/kg intratracheal twice weekly x4 from Day 1, Day 15, model group = 100.00
Protocol: This Example was to evaluate the inhibitory effect of polypeptides on collagen deposition at the pathological sites of pulmonary fibrosis. 6- to 8-week-old male SD rats weighing 200 to 220 g were used as subjects for the study. The experimental animals were randomized into groups, 8 animals in each group. On the day of modeling (Day 1), a single dose of 1.8 USP/kg of bleomycin solution was administered via the tracheal route to the model group and each peptide-treated group to induce the model. Starting on Day 1, each peptide-treated group received intratracheal administration of the peptide at a dosage of 2 mg/kg, with a dosing frequency of twice a week, for a total of four administrations. The model group received an equal volume of solvent (saline) as a control, with the volume being 100 μL. The procedure followed that described in Example 4. Day 15 was set as the experimental endpoint for assessing the degree of fibrosis in the model.
On Day 15, the animals were dissected to collect lung tissues. After grinding the rat lung tissues in liquid nitrogen, total hydroxyproline (HYP) was extracted from the tissues using acid hydrolysis, and the HYP content was determined by chloramine T oxidation colorimetry. 1 mL of 6N HCl was added per 100 mg of tissue and thoroughly mixed, followed by hydrolysis at 121° C. for 6 hours. The hydrolysate was centrifuged, and the resulting supernatant was used for HYP content determination. To a 96-well plate, the hydrolysate supernatant, or a gradient of HYP standard solutions (Sigma, Catalog No. V900395-25G) at different concentrations, was added in 10 μL per well, and dried in an oven at 65° C. 100 μL per well of 1.4% chloramine T oxidizing solution (Sigma, Catalog No. 23270-50G) was added, and incubated at room temperature for 15 minutes. 100 μL per well of Ehrlich's color development solution (Solarbio, Catalog No. G1290) was added and incubated at 65° C. for 30 minutes. The absorbance of each sample well was measured at 560 nm (OD560) using a multifunctional microplate reader (TECAN, model Infinite 200 Pro). The total HYP content in the lung tissue from each experimental group was calculated to determine the reduction percentage of HYP content in the peptide-treated group relative to the model group, and the inhibitory effect of the peptide molecule on collagen deposition at the fibrotic site was assessed.

[2] = test system: TSP-1-dependent TGF-β activation; experiment: TSP-1-dependent TGF-β activation in PMA-differentiated THP-1 cells with 293-TGFβ Res reporter cells; assay type: cell-based; settings: 100 μM polypeptide, 24 h; ratio to negative control group (1.00)
Protocol: In this Example, the inhibitory effects of the polypeptides on TSP-1-dependent TGF-β activation were detected using a model based on a high TSP-1 expressing cell. In the assay, THP-1 cells (American Typical Culture Collection, ATCC, TIB-20) were induced by phorbol ester (Phorbol 12-myristate 13-acetate, PMA) (Sigma, Catalog No. P1585) and differentiated into macrophage-like cells with distinct macrophage expression profiles.
The experiment was performed as follows: THP-1 cells were inoculated in a 96-well plate, and treated with 300 nM PMA for differentiation and adherence to form macrophage-like cells. 100 μM polypeptide was added (For the negative control group, an equal volume of PBS (the solvent for the polypeptide) was added, while the positive control group received an equal concentration of the polypeptide shown in SEQ ID NO: 50.) The cells were treated for 24 hours, and then a 293 reporter cell strain, 293-TGFβ Res cell strain (novoprotein, Catalog No. XCC03-1), was added for detecting TGF-β activity, and co-cultivated for 24 hours. Bio-Lite Luciferase Assay lysate comprising fluorescent substrate (Vazyme, Catalog No. DD1201-01) was added, and the fluorescent intensity was detected using a multifunctional microplate reader (TECAN, model Infinite 200 Pro). The inhibitory effect of the polypeptide on TGF-β activation was assessed by calculating the ratio of the fluorescence signal from the polypeptide-treated groups to that of the negative control group.

[3] = test system: human hepatic stellate cells (LX-2); experiment: ECM-related gene expression (RT-qPCR) in TGF-β1-stimulated LX-2 cells, liver fibrosis cell model; assay type: cell-based; settings: 20 ng/mL TGF-β1 24 h, then 100 μM polypeptide 48 h; for COL I gene expression Mean: blank control 1.00, model group 6.62; for FN gene expression Mean: blank control 1.00, model group 11.38
Source text: This Example was to evaluate the inhibitory effect of polypeptides on the expression of extracellular matrix (ECM)-related genes in a cellular model of liver fibrosis. The experiment utilized human hepatic stellate cells (LX-2), which are the primary source of myofibroblasts in the liver. Upon activation, hepatic stellate cells transform into myofibroblasts, which secrete ECM in live and play a direct role in the development of hepatic fibrosis. Transient stimulation of LX-2 cells with TGF-β1 can initiate a positive feedback regulation of TSP-1-TGF-β1 activation, which continuously enhances myofibroblast characteristics, including ECM production.
This experiment was performed as follows. LX-2 cells (Procell, CL-0560) were stimulated by 20 ng/mL TGF-β1 (Genscript, Catalog No.Z03411) for 24 h, then added 100 μM polypeptide and cultured for 48 h. An equal volume of solvent was added to the model group, and LX-2 cells without any treatment were used as a blank control. After that, LX-2 cells were collected and total RNA was extracted for RT-qPCR to detect the expression of ECM-related genes, EDA-Fibronectin (fibronectin, FN) and Collagen I (COL1). The polypeptides were able to reduce the expressions of FN and COL1 genes in LX-2 and inhibit ECM production.

| Compound | HYP content in lung tissue relative to model group, Mean (%) [1] [%] | Mean (relative fluorescence intensity) [2] | COL I gene expression Mean [3] | FN gene expression Mean [3] |
| --- | --- | --- | --- | --- |
| Ac-TQDAEDNTASH-NH2 [SEQ ID NO: 33, Ac-Thr-Gln-Asp-Ala-Glu-Asp-Asn-Thr-Ala-Ser-His-NH2] | 80.28 | 0.67 | 4.49 | 6.80 |
| Ac-TQDAEDPTAS-NH2 [SEQ ID NO: 25, Ac-Thr-Gln-Asp-Ala-Glu-Asp-Pro-Thr-Ala-Ser-NH2] | 81.45 | 0.73 | 4.00 | 6.47 |
| C[C@@H]1NC(=O)[C@H]([C@@H](C)O)NC(=O)[C@H](CC(N)=O)NC(=O)[C@H](CC(=O)O)NC(=O)[C@H](CCC(=O)O)NC(=O)[C@@H]2CCCN2C(=O)[C@H](CC(=O)O)NC(=O)[C@H](CCC(N)=O)NC(=O)[C@H]([C@@H](C)O)NC(=O)[C@H](CO)NC1=O [SEQ ID NO: 46, cyclo[Thr-Gln-Asp-Pro-Glu-Asp-Asn-Thr-Ala-Ser]] (cyclo(ASTQDPEDNT)) | 66.46 | 0.69 | – | – |
| Ac-TQDAEDN-NH2 [SEQ ID NO: 06, Ac-Thr-Gln-Asp-Ala-Glu-Asp-Asn-NH2] | 80.30 | 0.65 | 4.57 | 5.72 |
| CC(=O)N[C@H](C(=O)N[C@H]1CSSC[C@@H](C(N)=O)NC(=O)[C@H](CC(N)=O)NC(=O)[C@H](CC(=O)O)NC(=O)[C@H](CCC(=O)O)NC(=O)[C@H](C)NC(=O)[C@H](CC(=O)O)NC1=O)[C@@H](C)O [SEQ ID NO: 44, Ac-Thr-cyclo[Cys-Asp-Ala-Glu-Asp-Asn-Cys]-NH2] (Ac-TCDAEDNC-NH2; disulfide 2-8) | 65.55 | 0.43 | – | – |
| C[C@@H]1NC(=O)[C@H](CC(=O)O)NC(=O)[C@H](CCC(N)=O)NC(=O)[C@H]([C@@H](C)O)NC(=O)[C@H](CC(N)=O)NC(=O)[C@H](CC(=O)O)NC(=O)[C@H](CCC(=O)O)NC1=O [SEQ ID NO: 40, cyclo[Thr-Gln-Asp-Ala-Glu-Asp-Asn]] (cyclo(AEDNTQD)) | 72.93 | 0.77 | – | – |
| Ac-TQDPEDNTAS-NH2 [SEQ ID NO: 26, Ac-Thr-Gln-Asp-Pro-Glu-Asp-Asn-Thr-Ala-Ser-NH2] | 78.75 | 0.68 | 4.30 | 5.79 |
| Ac-TQDAEDPTA-NH2 [SEQ ID NO: 22, Ac-Thr-Gln-Asp-Ala-Glu-Asp-Pro-Thr-Ala-NH2] | 68.30 | 0.74 | 4.63 | 6.62 |
| CC(=O)N[C@H](C(=O)N[C@H]1CSSC[C@@H](C(=O)O)NC(=O)[C@H](CC(N)=O)NC(=O)[C@H](CC(=O)O)NC(=O)[C@H](CCC(=O)O)NC(=O)[C@H](C)NC(=O)[C@H](CC(=O)O)NC1=O)[C@@H](C)O [SEQ ID NO: 43, Ac-Thr-cyclo[Cys-Asp-Ala-Glu-Asp-Asn-Cys]] (Ac-TCDAEDNC-OH; disulfide 2-8) | 72.91 | 0.65 | 4.63 | 5.80 |
